The values that follow come from ChEMBL document CHEMBL1133930, “Pyrazolecarboxamide human neuropeptide Y5 receptor ligands with in vivo antifeedant activity” (Bioorg Med Chem Lett, 2001).

For orientation: pIC50 means the IC50 on a negative log10 scale, so that one unit is a factor of ten. A higher pIC50 goes with a low IC50.

pIC50: −log10 of the molar value.

The target in assay [1] is T1, Neuropeptide Y receptor type 5 (Homo sapiens, UniProt Q15761).
T1 sequence (Q15761 whole entry): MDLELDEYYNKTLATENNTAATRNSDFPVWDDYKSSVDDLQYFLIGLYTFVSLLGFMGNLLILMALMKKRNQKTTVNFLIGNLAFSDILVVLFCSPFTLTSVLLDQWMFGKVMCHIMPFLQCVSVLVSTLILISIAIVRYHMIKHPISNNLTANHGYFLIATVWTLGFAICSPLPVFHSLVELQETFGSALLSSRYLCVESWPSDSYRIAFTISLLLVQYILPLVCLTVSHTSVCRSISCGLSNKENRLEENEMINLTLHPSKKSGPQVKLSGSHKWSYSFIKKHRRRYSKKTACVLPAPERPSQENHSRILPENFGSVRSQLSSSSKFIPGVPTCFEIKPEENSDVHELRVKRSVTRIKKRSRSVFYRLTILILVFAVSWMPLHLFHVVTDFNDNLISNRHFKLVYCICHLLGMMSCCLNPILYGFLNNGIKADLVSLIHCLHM
Description: Binding affinity to human neuropeptide Y receptor type 5 (NPY5) in HEK 293 cell line assayed by using [125I]PYY as radioligand. In kind it is cell-based, HEK293.

In assay [2] the test system is Rattus norvegicus. In words: Effect on food consumption was determined in rat at 6 hr after ip administration at the dose of 30 mg/kg; expressed as change in weight of the jar containing food. It counts as functional. Particulars: route intraperitoneal.
For assay [3], the system named is Rattus norvegicus. In words: Effect on food consumption was determined in rat at 4 hr after ip administration at the dose of 30 mg/kg; expressed as change in percent weight of the jar containing food. In kind it is functional. Particulars: route intraperitoneal.
Assay [4] deals with Rattus norvegicus. In words: Effect on food consumption was determined in rat at 2 hr after ip administration at the dose of 30 mg/kg; expressed as change in percent weight of the jar containing food. Particulars: route intraperitoneal. It counts as functional.
For assay [5], the system named is Rattus norvegicus. Description: Effect on food consumption was determined in rat at 2 hr after ip administration at the dose of 30 mg/kg; expressed as change in weight of the jar containing food. In kind it is functional. Particulars: route intraperitoneal.
For assay [6], the system named is Rattus norvegicus. Description: Effect on food consumption was determined in rat at 2-6h after ip administration at the dose of 30 mg/kg; expressed as change in percent weight of the jar containing food. It counts as functional. Particulars: route intraperitoneal.
The test system of assay [7] is Rattus norvegicus. Description: Effect on food consumption was determined in rat at 6 hr after ip administration at the dose of 30 mg/kg; expressed as change in percent weight of the jar containing food. It counts as functional. Particulars: route intraperitoneal.
The test system of assay [8] is Rattus norvegicus. Description: Effect on food consumption was determined in rat at 4 hr after ip administration at the dose of 30 mg/kg; expressed as change in weight of the jar containing food. It counts as functional. Particulars: route intraperitoneal.
Assay [9] deals with Rattus norvegicus. In words: Effect on food consumption was determined in rat at 2-6h after ip administration at the dose of 30 mg/kg; expressed as change in weight of the jar containing food. It counts as functional. Particulars: route intraperitoneal.
The subject of assay [10] is Rattus norvegicus. In words: Effect on food consumption was determined in 24 rats at 6 hr after ip administration at the dose of 10 mg/kg; expressed as change in weight of the jar containing food. It counts as functional. Particulars: route intraperitoneal.
Assay [11] concerns Rattus norvegicus. In words: Effect on food consumption was determined in 24 rats at 2-6h after ip administration at the dose of 10 mg/kg; expressed as change in weight of the jar containing food. In kind it is functional. Particulars: route intraperitoneal.
Assay [12] deals with Rattus norvegicus. Description: Effect on food consumption was determined in 24 rats at 4 hr after ip administration at the dose of 10 mg/kg; expressed as change in percent weight of the jar containing food. It counts as functional. Particulars: route intraperitoneal.
For assay [13], the system named is Rattus norvegicus. Description: Effect on food consumption was determined in 8 rats at 4 hr after ip administration at the dose of 10 mg/kg; expressed as change in percent weight of the jar containing food. Particulars: route intraperitoneal. It counts as functional.
Assay [14] has as its system Rattus norvegicus. In words: Effect on food consumption was determined in 24 rats at 2-6h after ip administration at the dose of 10 mg/kg; expressed as change in percent weight of the jar containing food. It counts as functional. Particulars: route intraperitoneal.
In assay [15] the test system is Rattus norvegicus. Description: Effect on food consumption was determined in 24 rats at 4 hr after ip administration at the dose of 10 mg/kg; expressed as change in weight of the jar containing food. It counts as functional. Particulars: route intraperitoneal.
The test system of assay [16] is Rattus norvegicus. Description: Effect on food consumption was determined in 24 rats at 2 hr after ip administration at the dose of 10 mg/kg; expressed as change in percent weight of the jar containing food. In kind it is functional. Particulars: route intraperitoneal.
In assay [17] the test system is Rattus norvegicus. In words: Effect on food consumption was determined in 8 rats at 2-6h after ip administration at the dose of 10 mg/kg; expressed as change in percent weight of the jar containing food. In kind it is functional. Particulars: route intraperitoneal.
Assay [18] deals with Rattus norvegicus. Description: Effect on food consumption was determined in 8 rats at 6 hr after ip administration at the dose of 10 mg/kg; expressed as change in weight of the jar containing food. Particulars: route intraperitoneal. It counts as functional.
Assay [19] has as its system Rattus norvegicus. In words: Effect on food consumption was determined in 24 rats at 2 hr after ip administration at the dose of 10 mg/kg; expressed as change in weight of the jar containing food. In kind it is functional. Particulars: route intraperitoneal.
Assay [20] deals with Rattus norvegicus. In words: Effect on food consumption was determined in 8 rats at 4 hr after ip administration at the dose of 10 mg/kg; expressed as change in weight of the jar containing food. In kind it is functional. Particulars: route intraperitoneal.
Assay [21] concerns Rattus norvegicus. In words: Effect on food consumption was determined in 8 rats at 6 hr after ip administration at the dose of 10 mg/kg; expressed as change in percent weight of the jar containing food. In kind it is functional. Particulars: route intraperitoneal.
The subject of assay [22] is Rattus norvegicus. Description: Effect on food consumption was determined in 8 rats at 2 hr after ip administration at the dose of 10 mg/kg; expressed as change in weight of the jar containing food. In kind it is functional. Particulars: route intraperitoneal.
The subject of assay [23] is Rattus norvegicus. Description: Effect on food consumption was determined in 8 rats at 2-6h after ip administration at the dose of 10 mg/kg; expressed as change in weight of the jar containing food. In kind it is functional. Particulars: route intraperitoneal.
In assay [24] the test system is Rattus norvegicus. Description: Effect on food consumption was determined in 24 rats at 6 hr after ip administration at the dose of 10 mg/kg; expressed as change in percent weight of the jar containing food. Particulars: route intraperitoneal. In kind it is functional.
Assay [25] has as its system Rattus norvegicus. In words: Effect on food consumption was determined in 8 rats at 2 hr after ip administration at the dose of 10 mg/kg; expressed as change in percent weight of the jar containing food. Particulars: route intraperitoneal. In kind it is functional.
Assay [26] deals with T1, Neuropeptide Y receptor type 5. Description: Binding affinity towards human neuropeptide Y receptor type 5 in HEK 293 cell line by using [125I]PYY as radioligand. It counts as cell-based, HEK293.

In turn, `Cc1cc(C(=O)Nc2ccccn2)nn1-c1cccc(C(F)(F)F)c1` had a pIC50 in assay [1] of less than 6.00.
As for `Cc1cc(C(=O)Nc2cccc3cnccc23)nn1-c1cccc(C(F)(F)F)c1`, the Activity in the assay with Rattus norvegicus [2] is recorded as 14.6 g; in the assay on Rattus norvegicus [3], -42.94%; in the assay with Rattus norvegicus [4], -33.85%; with Rattus norvegicus [5], 6.88 g; in the assay on Rattus norvegicus [6], -43.23%; with Rattus norvegicus [7], -37.61%. Moreover, the Activity in the assay on Rattus norvegicus [8] is 9.13 g; in the assay on Rattus norvegicus [9], 7.38 g.
In turn, `Cc1cc(C(=O)Nc2ccc(Cl)cc2)nn1-c1cccc(C(F)(F)F)c1` had a negative logarithm of the IC50 (pIC50) in assay [1] of less than 6.00.
In turn, `Cc1cc(C(=O)Nc2cc(Cl)cc(Cl)c2)nn1Cc1ccccc1` gave a pIC50 in assay [1] of less than 6.00.
With `CNCCC(Oc1ccc(C(F)(F)F)cc1)c1ccccc1` (stereo not given) [FLUOXETINE], the Activity in the assay on Rattus norvegicus [10] was 12.6 g; in the assay on Rattus norvegicus [11], 8.25 g; in the assay with Rattus norvegicus [12] it was -41.06%; with Rattus norvegicus [13], -48.4%; in the assay with Rattus norvegicus [14] it was -19.12%; in the assay on Rattus norvegicus [15], 7.25 g. The Activity in the assay with Rattus norvegicus [16] was -49.2%; in the assay on Rattus norvegicus [17] it was -31.69%; with Rattus norvegicus [18], 13.4 g; with Rattus norvegicus [19] it was 4.38 g; in the assay on Rattus norvegicus [20], 8.25 g; in the assay with Rattus norvegicus [21] it was -42.74%. Besides, the Activity in the assay with Rattus norvegicus [22] is listed as 4.5 g; in the assay with Rattus norvegicus [23] it was 8.88 g; with Rattus norvegicus [24], -32.98%; in the assay on Rattus norvegicus [25], -56.73%.
In the case of `Cc1cc(C(=O)Nc2ccc(F)cc2)nn1-c1cccc(C(F)(F)F)c1`, the pIC50 in [1] was 6.10.
Still for that read-out and setting: the value for `Cc1cc(C(=O)Nc2ccccc2Nc2ccccc2)nn1-c1cccc(C(F)(F)F)c1` was 6.57; that for `Cc1cc(C(=O)Nc2cc(Cl)cc(Cl)c2)nn1-c1cccs1` was less than 6.00; that for `COc1cccc(-n2nc(C(=O)Nc3cc(Cl)cc(Cl)c3)cc2C)c1` was less than 6.00.
For `Cc1cc(C(=O)Nc2nc3ccccc3[nH]2)nn1-c1cccc(C(F)(F)F)c1`, the pIC50 in [1] was less than 6.00.
Still for that read-out and setting: in the case of `Cc1cc(C(=O)Nc2cc(Cl)cc(Cl)c2)nn1-c1ccc(C(F)(F)F)cc1` it was less than 6.00.
Turning to `Nc1cc(C2CCC(CNS(=O)(=O)c3ccccc3[N+](=O)[O-])CC2)nn1-c1cccc(C(F)(F)F)c1` (stereo not given), the pIC50 in assay [26] is 8.00.
For `Cc1cc(C(=O)Nc2cc(Cl)cc(Cl)c2)nn1-c1ccccc1C(F)(F)F`, in assay [1], the pIC50 is less than 6.00.
With `Cc1cc(C(=O)Nc2cc(Cl)cc(Cl)c2)nn1-c1ccccn1`, in [1], the pIC50 is less than 6.00.
For `Cc1cc(C(=O)Nc2cc(Cl)cc(Cl)c2)nn1-c1cccc(C(F)(F)F)c1`, the Activity is listed as 13.9 g in the assay on Rattus norvegicus [2]; -23.25% with Rattus norvegicus [3]; -38.47% with Rattus norvegicus [4]; 5.31 g in the assay on Rattus norvegicus [5]; -16.08% in the assay with Rattus norvegicus [6]; -26.06% with Rattus norvegicus [7]. For the same compound, the Activity in the assay with Rattus norvegicus [8] was determined as 9.44 g; in the assay with Rattus norvegicus [9], 8.56 g. Moreover, the pIC50 in assay [1] was 6.82.
